Assay results as given in PMC9757636, “The effectiveness of newly synthesized quaternary ammonium salts differing in chain length and type of counterion against priority human pathogens” (Scientific Reports, 2022).
Marks after values point to notes of the source that are not given here.

How the values were obtained:
[1] = tested on: Salmonella typhimurium TA98; assay: Mutagenicity (Ames test); format: cell-based; conditions: for Number of colonies: ± SD
Protocol: (§1) Two reference strains of Salmonella Typhimurium TA98 and Salmonella Typhimurium TA100, deficient in histidine synthesis, were used for this study according to the method proposed by Ames et al. with modifications. […] The mixture was mixed and poured onto a Davis minimal medium plate. The mixture without the test compound was used as a negative control. The positive control was a mixture of bacterial culture, biotin-histidine solution, and sodium azide (at a concentration of 15 μg/mL for strain TA100) or acriflavine (at a concentration of 100 μg/mL for strain TA98). Plates were incubated for 48 h at 37 °C, and then colonies were counted. The mutagenicity ratio (MR), the ratio of the number of revertants grown in the presence of the test compound to the number of spontaneously occurring revertants (negative control), was calculated. A mutagenic ratio equal to or greater than 1.7 indicates the mutagenic potential of the tested compounds. The study was performed in three times.

[2] = tested on: Salmonella typhimurium TA100; assay: Mutagenicity (Ames test); format: cell-based; conditions: for Number of colonies: ± SD
Protocol: as §1

S. epidermidis SI8 = assay: MIC/MBC microdilution; format: cell-based, Staphylococcus epidermidis; conditions: for Minimal bactericidal concentration (*MBC): 99.9% reduction; for Minimal inhibitory concentration (MIC): 24 h, 37 °C, >90% growth inhibition
Protocol: (§2) The minimum inhibitory concentration (MIC) of the tested monomeric QAS was performed using the microdilution method according to CLSI recommendation (M27-A3). Concentrations from 10 to 1280 µM were analyzed. Strains were incubated with or without compounds (growth control) for 24 h at 37 °C. Three independent replicates were performed. The MIC value was determined spectrophotometrically and the concentration that inhibited more than 90% of growth was determined. Optical density was measured at λ = 590 nm using a 96-well microplate reader (Bio-Rad Universal Hood II).
(§3) To determine the minimum bactericidal concentration (MBC), 10 µL of bacterial suspension incubated with monomeric QAS (MIC concentration and two times higher) was transferred to plates with LB (1% tryptone, 1% yeast extract, 0.5% NaCl) medium. […] The concentration that reduced 99.9% of microbial growth was determined as MBC[54].

[3] = tested on: S. epidermidis ATCC 35984; assay: MIC/MBC microdilution; format: cell-based, Staphylococcus epidermidis; conditions: for Minimal bactericidal concentration (*MBC): 99.9% reduction; for Minimal inhibitory concentration (MIC): 24 h, 37 °C, >90% growth inhibition
Protocol: as §2, §3

S. epidermidis B374 [4] = assay: MIC/MBC microdilution; format: cell-based, Staphylococcus epidermidis; conditions: S. epidermidis B374; for Minimal bactericidal concentration (*MBC) / MBC: 99.9% reduction; for Minimal inhibitory concentration (MIC) / MIC: 24 h, 37 °C, >90% growth inhibition; for MBC: read-out: Minimal bactericidal concentration (*MBC); for MIC: read-out: Minimal inhibitory concentration (MIC)
Protocol: as §2, §3

[5] = Critical micelle concentration by conductometric measurements; format: physicochemical; conditions: aqueous solution, 25 °C
Protocol: Values of critical micelle concentrations (CMC) of cationic surfactants were measured conductrometrically. N5721 conductometer (Tel-Eko Projekt sp z o.o., Poland), equipped with N5981 probe, was calibrated using 0.1 M, 0.01 M and 0.001 M KCl aqueous solutions (conductivities equal to 1.287 S/m, 0.141 S/m and 0.0147 S/m, respectively) and used without temperature compensation mode (constant temperature 25 °C was kept during all calibration procedures and measurements). Values of specific conductivities of at least 15 different concentrations for each surfactant were measured and plotted versus concentration; the discontinuity point was used to determine critical micelle concentration.

S. aureus MRSA R98 = assay: MIC/MBC microdilution; format: cell-based, Staphylococcus aureus; conditions: for Minimal bactericidal concentration (*MBC): 99.9% reduction; for Minimal inhibitory concentration (MIC): 24 h, 37 °C, >90% growth inhibition
Protocol: as §2, §3

S. aureus ATCC 6538 = assay: MIC/MBC microdilution; format: cell-based, Staphylococcus aureus; conditions: S. aureus ATCC 6538; for Minimal bactericidal concentration (*MBC): 99.9% reduction; for Minimal inhibitory concentration (MIC): 24 h, 37 °C, >90% growth inhibition
Protocol: as §2, §3

P. aeruginosa ATCC 27853 = assay: MIC/MBC microdilution; format: cell-based, Pseudomonas aeruginosa; conditions: P. aeruginosa ATCC 27853; for Minimal bactericidal concentration (*MBC): 99.9% reduction; for Minimal inhibitory concentration (MIC): 24 h, 37 °C, >90% growth inhibition
Protocol: as §2, §3

P. aeruginosa PAO1 [6] = assay: MIC/MBC microdilution; format: cell-based, Pseudomonas aeruginosa; conditions: for Minimal bactericidal concentration (*MBC): 99.9% reduction; for Minimal inhibitory concentration (MIC): 24 h, 37 °C, >90% growth inhibition
Protocol: as §2, §3

P. aeruginosa PAO1 [7] = assay: Adhesion to glass; format: cell-based, Pseudomonas aeruginosa; conditions: concentration not given
E. coli H64 = assay: MIC/MBC microdilution; format: cell-based, Escherichia coli; conditions: E. coli H64; for Minimal bactericidal concentration (*MBC): 99.9% reduction; for Minimal inhibitory concentration (MIC) / MIC: 24 h, 37 °C, >90% growth inhibition; for MIC: read-out: Minimal inhibitory concentration (MIC)
Protocol: as §2, §3

E. coli ATCC 11229 = assay: MIC/MBC microdilution; format: cell-based, Escherichia coli; conditions: E. coli ATCC 11229; for Minimal bactericidal concentration (*MBC): 99.9% reduction; for Minimal inhibitory concentration (MIC): 24 h, 37 °C, >90% growth inhibition
Protocol: as §2, §3

S. epidermidis B374 [8] = assay: Adhesion to polystyrene plate; format: cell-based, Staphylococcus epidermidis
Protocol: Adhesion analysis to polystyrene surfaces was determined according to the method of Rodrigues et al. with modifications. Polystyrene 96-well plates were incubated with the respective compound concentrations (10–1280 µM) for 4 h at 37 °C with 100 rpm shaking. The plates were then washed with miliQ and inoculated with 100 µL of bacterial suspension (OD = 0.4–0.6). Plates were incubated for 6 h at 37 °C with 100 rpm shaking. Wells were rinsed and fixed for 20 min at 60 °C. They were then […] with 0.1% crystal violet solution for 5 min. The wells were washed with miliQ until the unfixed dye was completely eluted. The absorbance at λ = 590 nm was measured using a reader (Bio-Rad Universal Hood II). The positive control was a surface not treated with QAS. Three independent trials were performed.

S. epidermidis B374 [9] = assay: Adhesion to stainless steel; format: cell-based, Staphylococcus epidermidis; conditions: concentration not given, range given over three strains

## CCCCCCCCCCCC(=O)N(C)CCC[N+](C)(C)C.[Br-] [BrC12]
[1]; reading frame shift type mutation, MR >= 1.7 indicates mutagenic potential
  mutagenicity index (MR): above 1.7
[1]; ¼ MIC
  Mutagenicity index: 0.78
  Number of colonies: 20 ± 1.4
[1]; ½ MIC
  Mutagenicity index: 1.98
  Number of colonies: 50.5 ± 6.4
[2]; base pair substitution type mutations, MR >= 1.7 indicates mutagenic potential
  mutagenicity index (MR): < 1.7
[2]; ¼ MIC
  Mutagenicity index: 1.41
  Number of colonies: 179.3 ± 13.9
[2]; ½ MIC
  Mutagenicity index: 1.15
  Number of colonies: 146 ± 18.5
S. epidermidis SI8
  Minimal bactericidal concentration (*MBC): 640 *640 µM
  Minimal inhibitory concentration (MIC): 640 *640 µM
[3]
  Minimal bactericidal concentration (*MBC): 640 *640 µM
  Minimal inhibitory concentration (MIC): 640 *640 µM
S. epidermidis B374 [4]
  Minimal bactericidal concentration (*MBC): 640 *640 µM
  Minimal inhibitory concentration (MIC): 640 *640 µM
[5]
  CMC: 0.0086 mol/L
S. aureus MRSA R98
  Minimal bactericidal concentration (*MBC): 640 *640 µM
  Minimal inhibitory concentration (MIC): 640 *640 µM
S. aureus ATCC 6538
  Minimal bactericidal concentration (*MBC): 1280 *1280 µM
  Minimal inhibitory concentration (MIC): 1280 *1280 µM
P. aeruginosa ATCC 27853
  Minimal bactericidal concentration (*MBC): 1280 *1280 µM
  Minimal inhibitory concentration (MIC): 1280 *1280 µM
P. aeruginosa PAO1 [6]
  Minimal bactericidal concentration (*MBC): > 1280 * > 1280 µM
  Minimal inhibitory concentration (MIC): > 1280 * > 1280 µM
P. aeruginosa PAO1 [7]
  reduction of adhesion to glass: approximately 20%
E. coli H64
  Minimal bactericidal concentration (*MBC): 1280 *1280 µM
  Minimal inhibitory concentration (MIC): 1280 *1280 µM
E. coli ATCC 11229
  Minimal bactericidal concentration (*MBC): 1280 *1280 µM
  Minimal inhibitory concentration (MIC): 1280 *1280 µM

## CCCCCCCCCCCCCC(=O)N(C)CCC[N+](C)(C)C.[Br-] [BrC14]
[1]; ¼ MIC
  Mutagenicity index: 0.73
  Number of colonies: 18.7 ± 6.4
[1]; ½ MIC
  Mutagenicity index: 0.84
[2]; ¼ MIC
  Mutagenicity index: 1.24
  Number of colonies: 158 ± 19.8
[2]; ½ MIC
  Mutagenicity index: 1.16
  Number of colonies: 147.5 ± 21.9
S. epidermidis SI8
  Minimal bactericidal concentration (*MBC): 160 *160 µM
  Minimal inhibitory concentration (MIC): 160 *160 µM
[3]
  Minimal bactericidal concentration (*MBC): 160 *160 µM
  Minimal inhibitory concentration (MIC): 160 *160 µM
S. epidermidis B374 [4]
  Minimal bactericidal concentration (*MBC): 640 * > 640 µM
  Minimal inhibitory concentration (MIC): 640 * > 640 µM
[5]
  CMC: 0.0025 mol/L
S. aureus MRSA R98
  Minimal bactericidal concentration (*MBC): 320 *320 µM
  Minimal inhibitory concentration (MIC): 320 *320 µM
S. aureus ATCC 6538
  Minimal bactericidal concentration (*MBC): 320 *320 µM
  Minimal inhibitory concentration (MIC): 320 *320 µM
P. aeruginosa ATCC 27853
  Minimal bactericidal concentration (*MBC): 1280 *1280 µM
  Minimal inhibitory concentration (MIC): 1280 *1280 µM
P. aeruginosa PAO1 [6]
  Minimal bactericidal concentration (*MBC): > 1280 * > 1280 µM
  Minimal inhibitory concentration (MIC): > 1280 * > 1280 µM
P. aeruginosa PAO1 [7]
  reduction of adhesion to glass: approximately 20%
E. coli H64
  Minimal bactericidal concentration (*MBC): 320 *320 µM
  Minimal inhibitory concentration (MIC): 320 *320 µM
E. coli ATCC 11229
  Minimal bactericidal concentration (*MBC): > 1280 * > 1280 µM
  Minimal inhibitory concentration (MIC): > 1280 * > 1280 µM
S. epidermidis B374 [8]; 1280 µM
  reduced adhesion to polystyrene: 82%

## CCCCCCCCCCCCCCN(C)CCC[N+](C)(C)C.COC(=O)[O-] [MeC14, [(3-tetradecyilomethyloamine)propyl] trimethylammonium methylcarbonate]
[1]; ¼ MIC
  Mutagenicity index: 0.57
  Number of colonies: 13 ± 2.8
[1]; ½ MIC
  Mutagenicity index: 0.95
  Number of colonies: 21.7 ± 3.5
[2]; ¼ MIC
  Mutagenicity index: 1.17
  Number of colonies: 329.5 ± 20.5
[2]; ½ MIC
  Mutagenicity index: 1.10
  Number of colonies: 310 ± 17.3
S. epidermidis SI8
  Minimal bactericidal concentration (*MBC): 40 *40 µM
  Minimal inhibitory concentration (MIC): 40 *40 µM
[3]
  Minimal bactericidal concentration (*MBC): 40 *40 µM
  Minimal inhibitory concentration (MIC): 40 *40 µM
S. epidermidis B374 [4]
  MBC: 160 µM
  MIC: 80 µM
[5]
  CMC: 0.0041 mol/L
S. aureus MRSA R98
  Minimal bactericidal concentration (*MBC): 80 *80 µM
  Minimal inhibitory concentration (MIC): 80 *80 µM
S. aureus ATCC 6538
  Minimal bactericidal concentration (*MBC): 80 *80 µM
  Minimal inhibitory concentration (MIC): 80 *80 µM
P. aeruginosa ATCC 27853
  Minimal bactericidal concentration (*MBC): 1280 * > 1280 µM
  Minimal inhibitory concentration (MIC): 1280 * > 1280 µM
P. aeruginosa PAO1 [6]
  Minimal bactericidal concentration (*MBC): > 1280 * > 1280 µM
  Minimal inhibitory concentration (MIC): > 1280 * > 1280 µM
E. coli H64
  Minimal bactericidal concentration (*MBC): 80 *80 µM
  Minimal inhibitory concentration (MIC): 80 *80 µM
  MIC: 80 µM
E. coli ATCC 11229
  Minimal bactericidal concentration (*MBC): 320 *320 µM
  Minimal inhibitory concentration (MIC): 320 *320 µM

## CCCCCCCCCCCCCCCCN(C)CCC[N+](C)(C)C.COC(=O)[O-] [MeC16, [(3-hexadecyilomethyloamine)propyl] trimethylammonium methylcarbonate]
[1]; ¼ MIC
  Mutagenicity index: 0.39
  Number of colonies: 9 ± 2
[1]; ½ MIC
  Mutagenicity index: 0.19
  Number of colonies: 4.3 ± 3.1
[2]; ¼ MIC
  Mutagenicity index: 1.09
  Number of colonies: 305 ± 8.7
[2]; ½ MIC
  Mutagenicity index: 1.09
  Number of colonies: 306.7 ± 11.5
S. epidermidis B374 [9]
  inhibition of adhesion to stainless steel: 69–83%
S. epidermidis SI8
  Minimal bactericidal concentration (*MBC): 10 *10 µM
  Minimal inhibitory concentration (MIC): 10 *10 µM
[3]
  Minimal bactericidal concentration (*MBC): 40 *40 µM
  Minimal inhibitory concentration (MIC): 40 *40 µM
S. epidermidis B374 [4]
  MBC: 160 µM
  MIC: 80 µM
[5]
  CMC: 0.0012 mol/L
S. aureus MRSA R98
  Minimal bactericidal concentration (*MBC): 40 *40 µM
  Minimal inhibitory concentration (MIC): 40 *40 µM
S. aureus ATCC 6538
  Minimal bactericidal concentration (*MBC): 10 *10 µM
  Minimal inhibitory concentration (MIC): 10 *10 µM
P. aeruginosa ATCC 27853
  Minimal bactericidal concentration (*MBC): > 1280 * > 1280 µM
  Minimal inhibitory concentration (MIC): > 1280 * > 1280 µM
P. aeruginosa PAO1 [6]
  Minimal bactericidal concentration (*MBC): > 1280 * > 1280 µM
  Minimal inhibitory concentration (MIC): > 1280 * > 1280 µM
P. aeruginosa PAO1 [7]
  reduction of adhesion to glass: approximately 20%
E. coli H64
  Minimal bactericidal concentration (*MBC): 80 *80 µM
  Minimal inhibitory concentration (MIC): 80 *80 µM
  MIC: 80 µM
E. coli ATCC 11229
  Minimal bactericidal concentration (*MBC): 320 *320 µM
  Minimal inhibitory concentration (MIC): 320 *320 µM
S. epidermidis B374 [8]; 320 µM
  reduction in adhesion to polystyrene: 77%
